# Article PMC9486889 (Japanese Journal of Clinical Oncology, 2022)
# How the values were obtained:
# [1] = Cardiovascular assessments; assay type: in vivo, Japanese patients
# [2] = test system: HDAC1; settings: cited from earlier work
# [3] = test system: HDAC2; settings: cited from earlier work
# [4] = test system: HDAC10; settings: cited from earlier work
smiles,measurement,setting,value
"Nc1cc(F)ccc1NC(=O)c1ccc(CNC(=O)/C=C/c2cccnc2)cc1 [HBI-8000, tucidinostat]",Absolute QTcF >450 ms,[1]; 30 mg BIW cohort,three
same,QTcF increase of >30 ms from baseline,[1]; 40 mg BIW cohort,three
same,Absolute QTcF prolonged to >500 ms,[1]; both cohorts,none
same,QTcF increase >60 ms from baseline,[1]; both cohorts,none
same,Inhibition of HDAC activity,[2],selectively inhibits
same,Inhibition of HDAC activity,[3],selectively inhibits
same,Inhibition of HDAC activity,[4],selectively inhibits
